# Key:
# Staphylococcus aureus [1] = experiment: Antimicrobial activity against Staphylococcus aureus Smith by CLSI method; type: functional
# [2] = test system: Acinetobacter calcoaceticus; experiment: Antimicrobial activity against Acinetobacter calcoaceticus IFO2552 by CLSI method; type: functional
# Micrococcus luteus [3] = experiment: Antimicrobial activity against Micrococcus luteus ATCC 21212 by CLSI method; type: functional
# Staphylococcus aureus [4] = experiment: Antimicrobial activity against Staphylococcus aureus 8325 (pEP2104) by CLSI method; type: functional
# Micrococcus luteus [5] = experiment: Antimicrobial activity against Micrococcus luteus ATCC 9341 by CLSI method; type: functional
# Escherichia coli = experiment: Antimicrobial activity against Escherichia coli NIHJ JC-2 by CLSI method; type: functional
# Klebsiella pneumoniae = experiment: Antimicrobial activity against Klebsiella pneumoniae NCTN9632 by CLSI method; type: functional
# Klebsiella aerogenes = experiment: Antimicrobial activity against Enterobacter aerogenes NCTC10006 by CLSI method; type: functional
# Staphylococcus aureus [6] = experiment: Antimicrobial activity against Staphylococcus aureus FDA209P by CLSI method; type: functional
# THP-1 [7] = experiment: Cytotoxicity against human THP1 cells using cell count reagent SF; type: cell-based
# Serratia marcescens = experiment: Antimicrobial activity against Serratia marcescens IFO12648 by CLSI method; type: functional
# [8] = test system: Staphylococcus epidermidis; experiment: Antimicrobial activity against Staphylococcus epidermidis […] by CLSI method; type: functional
# THP-1 [9] = experiment: Immunomodulatory activity in human THP1 cells assessed as differentiation of monocyte to macrophage after 4 days by MTT assay; type: functional; settings: THP-1, 96 h, read-out: ED50 (the source's name)
smiles,measurement,setting,value
CC[C@@H](O)[C@@](C)(O)[C@@H]1OC(=O)[C@H](C)[C@@H](O[C@H]2C[C@@](C)(OC)[C@@H](O)[C@H](C)O2)[C@H](C)[C@@H](O[C@@H]2O[C@H](C)C[C@H](N(C)C)[C@H]2O)[C@@]2(C)C[C@@H](C)[C@H](O2)[C@@H]1C,MIC,Staphylococcus aureus [1],> 128 µg/mL
same,MIC,[2],> 128 µg/mL
same,MIC,Micrococcus luteus [3],> 128 µg/mL
same,MIC,Staphylococcus aureus [4],> 128 µg/mL
same,MIC,Micrococcus luteus [5],128 µg/mL
same,MIC,Escherichia coli,> 128 µg/mL
same,MIC,Klebsiella pneumoniae,> 128 µg/mL
same,MIC,Klebsiella aerogenes,> 128 µg/mL
same,MIC,Staphylococcus aureus [6],> 128 µg/mL
same,Activity,THP-1 [7],100 µM
same,MIC,Serratia marcescens,> 128 µg/mL
same,MIC,[8],> 128 µg/mL
same,EC50,THP-1 [9],17.1 µM
CO[C@]1(C)C[C@H](O[C@H]2[C@H](C)[C@@H](O[C@@H]3O[C@H](C)C[C@H](N(C)C)[C@H]3O)[C@@]3(C)C[C@@H](C)[C@H](O3)[C@H](C)[C@H](C(C)=O)OC(=O)[C@@H]2C)O[C@@H](C)[C@@H]1O,Activity,THP-1 [7],100 µM
same,EC50,THP-1 [9],12.3 µM
CO[C@]1(C)C[C@H](O[C@H]2[C@H](C)[C@@H](O[C@@H]3O[C@H](C)C[C@H](N(C)C)[C@H]3O)[C@@]3(C)C[C@@H](C)[C@H](O3)[C@H](C)[C@H](/C(C)=N/O)OC(=O)[C@@H]2C)O[C@@H](C)[C@@H]1O,Activity,THP-1 [7],> 100 µM
same,EC50,THP-1 [9],12.3 µM
CC[C@@H]1O[C@@]1(C)[C@@H]1OC(=O)[C@H](C)[C@@H](O[C@H]2C[C@@](C)(OC)[C@@H](O)[C@H](C)O2)[C@H](C)[C@@H](O[C@@H]2O[C@H](C)C[C@H](N(C)C)[C@H]2O)[C@@]2(C)C[C@@H](C)[C@H](O2)[C@@H]1C,Activity,THP-1 [7],100 µM
same,EC50,THP-1 [9],10.2 µM
CC[C@@H](OC(C)=O)[C@@](C)(O)[C@@H]1OC(=O)[C@H](C)[C@@H](O[C@H]2C[C@@](C)(OC)[C@@H](O)[C@H](C)O2)[C@H](C)[C@@H](O[C@@H]2O[C@H](C)C[C@H](N(C)C)[C@H]2O)[C@@]2(C)C[C@@H](C)[C@H](O2)[C@@H]1C,Activity,THP-1 [7],100 µM
same,EC50,THP-1 [9],7.7 µM
CC[C@@H](O)[C@@](C)(O)[C@@H]1OC(=O)[C@H](C)[C@@H](O[C@H]2C[C@@](C)(OC)[C@@H](O)[C@H](C)O2)[C@H](C)[C@@H](O[C@@H]2O[C@H](C)C[C@H](N(C)C)[C@H]2OC(C)=O)[C@@]2(C)C[C@@H](C)[C@H](O2)[C@@H]1C,Activity,THP-1 [7],100 µM
same,EC50,THP-1 [9],16.1 µM
CC[C@@H](O)[C@@](C)(O)[C@@H]1OC(=O)[C@H](C)[C@@H](O)[C@H](C)[C@@H](O[C@@H]2O[C@H](C)C[C@H](N(C)C)[C@H]2OC(C)=O)[C@@]2(C)C[C@@H](C)[C@H](O2)[C@@H]1C,Activity,THP-1 [7],> 100 µM
same,EC50,THP-1 [9],> 100 µM
CC[C@H]1OC(=O)O[C@@]1(C)[C@@H]1OC(=O)[C@H](C)[C@@H](O)[C@H](C)[C@@H](O[C@@H]2O[C@H](C)C[C@H](N(C)C)[C@H]2OC(C)=O)[C@@]2(C)C[C@@H](C)[C@H](O2)[C@@H]1C,Activity,THP-1 [7],> 100 µM
same,EC50,THP-1 [9],55.7 µM
CC[C@H]1OC(=O)O[C@@]1(C)[C@@H]1OC(=O)[C@H](C)C(=O)[C@H](C)[C@@H](O[C@@H]2O[C@H](C)C[C@H](N(C)C)[C@H]2OC(C)=O)[C@@]2(C)C[C@@H](C)[C@H](O2)[C@@H]1C,Activity,THP-1 [7],> 100 µM
same,EC50,THP-1 [9],27.9 µM
CC[C@H]1OC(=O)O[C@@]1(C)[C@@H]1OC(=O)[C@H](C)C(=O)[C@H](C)[C@@H](O[C@@H]2O[C@H](C)C[C@H](N(C)C)[C@H]2O)[C@@]2(C)C[C@@H](C)[C@H](O2)[C@@H]1C,Activity,THP-1 [7],> 100 µM
same,EC50,THP-1 [9],26.3 µM
CC[C@H]1OC(=O)[C@H](C)[C@@H](O[C@H]2C[C@@](C)(OC)[C@@H](O)[C@H](C)O2)[C@H](C)[C@@H](O[C@@H]2O[C@H](C)C[C@H](N(C)C)[C@H]2O)[C@](C)(O)C[C@@H](C)C(=O)[C@H](C)[C@@H](O)[C@]1(C)O [ERYTHROMYCIN],MIC,Staphylococcus aureus [1],≤ 0.5 µg/mL
same,MIC,[2],4 µg/mL
same,MIC,Micrococcus luteus [3],1 µg/mL
same,MIC,Staphylococcus aureus [4],64 µg/mL
same,MIC,Micrococcus luteus [5],≤ 0.5 µg/mL
same,MIC,Escherichia coli,64 µg/mL
same,MIC,Klebsiella pneumoniae,32 µg/mL
same,MIC,Klebsiella aerogenes,128 µg/mL
same,MIC,Staphylococcus aureus [6],≤ 0.5 µg/mL
same,MIC,Serratia marcescens,128 µg/mL
same,MIC,[8],≤ 0.5 µg/mL

# From ChEMBL document CHEMBL1777670, “Novel 12-membered non-antibiotic macrolides from erythromycin A; EM900 series as novel leads for anti-inflammatory and/or immunomodulatory agents” (Bioorg Med Chem Lett, 2011)
